Structures can show the parent of a compound that is named as a salt.
Assay: Antagonist activity at human CCR5 expressed in HOS cells assessed as inhibition of cell fusion with HIV gp120 expressing HEK293 cells by LTR luciferase assay

## CCCCN1C(=O)C(CC(C)C)NC(=O)C12CCN(Cc1ccc(Oc3ccccc3)cc1)CC2 (stereo not drawn) [rac-1-Butyl-3-isobutyl-9-(4-phenoxybenzyl)-1,4,9-triazaspiro[5.5]undecane-2,5-dione hydrochloride]
  IC50: 851 nM

## CCCCN1C(=O)[C@@H]([C@H](O)C(C)C)NC(=O)C12CCN(Cc1ccc(Oc3ccccc3)cc1)CC2 [(R)-1-butyl-3-((R)-1-hydroxy-2-methyl-propyl)-9-(4-phenoxy-benzyl)-1,4,9-triaza-spiro[5.5]undecane-2,5-dione hydrochloride]
  IC50: 229 nM

From BindingDB's records for doi:10.1016/j.bmcl.2010.12.109 (Ono Pharmaceutical, 2011)
